The subject of data set [1] is male and female subjects between the ages of 65 and 84 years, baseline IGF-1 <150 ng/ml. Description: Clinical study, first leg (immediate release dosage forms): IGF-1, IGFBP-3, body composition. The class given is in vivo, human. How it is done: (§1) This clinical study was performed in male and female subjects between the ages of 65 and 84 years inclusive, and whose baseline IGF-1 levels were <150 ng/ml.
(§2) The study was a double blind, parallel group, placebo-controlled study.
In the first leg of the study, the safety and efficacy of 2-amino-N-[2-(3a-(R)-benzyl-2-methyl-3-oxo-2,3,3a,4,6,7-hexahydro-pyrazolo[4,3-c]pyridin-5-yl)-1-(R)-benzyloxymethyl-2-oxo-ethyl]-isobutyramide L-tartrate was studied in 4 groups of approximately 24 subjects at doses of 0 mg (placebo), 1 mg tid, 3 mg tid and 3 mg am and 6 mg pm. (All dosage forms in this part of the study were immediate release dosage forms.)
(§3) Return visits were scheduled at 1, 2, and 4 weeks after baseline. A blood sample for 2-amino-N-[2-(3a-(R)-benzyl-2-methyl-3-oxo-2,3,3a,4,6,7-hexahydro-pyrazolo[4,3-c]pyridin-5-yl)-1-(R)-benzyloxymethyl-2-oxo-ethyl]-isobutyramide L-tartrate and IGF-1 levels was obtained at each visit. The baseline and all subsequent follow-up visits were performed at the same time of day (between approximately 8-11 am).
(§4) A follow-up evaluation was made at 1, 2, and 4 weeks. Vital signs were obtained and the skin of the face, trunk and upper extremities was inspected. A blood sample was obtained for measurement of GH and IGF-1, and for measurement of plasma concentrations of 2-amino-N-[2-(3a-(R)-benzyl-2-methyl-3-oxo-2,3,3a,4,6,7-hexahydro-pyrazolo[4,3-c]pyridin-5-yl)-1-(R)-benzyloxymethyl-2-oxo-ethyl]-isobutyramide L-tartrate.
(§5) The primary efficacy endpoint was the percentage change from baseline in IGF-1. Secondary outcomes included insulin-like growth factor binding protein 3 (IGIFBP-3), cholesterol subfractions, and percent changes in total adipose and total lean tissue. Changes in each of the secondary efficacy measures over time were examined systematically either graphically or in tabular form and summarized using appropriate descriptive statistics as is well known in the art.

Data set [2] shares this test system. Description: Clinical study, extension study (CR, CR+IR, daily or every third day): IGF-I, GH peaks, body composition. The class given is in vivo, human. How it is done:
as §1, §2
In addition, an extension study was conducted to evaluate the relationship between peak GH concentrations or IGF-I versus surrogate responses such as lipid concentrations and body composition. A controlled release (CR) formulation was also evaluated, either alone or combined with an immediate release (IR) formulation (24-30 patients per group). [16mg (10 CR, 6 IR) h.s.( h.s. means at bedtime); 16 mg (10 CR, 6 IR) h.s. every third day; 16 mg CR h.s.; and placebo.] The formulations are set forth below.
In the extension study, 2-amino-N-[2-(3a-(R)-benzyl-2-methyl-3-oxo-2,3,3a,4,6,7-hexahydro-pyrazolo[4,3-c]pyridin-5-yl)-1-(R)-benzyloxymethyl-2-oxo-ethyl]-isobutyramide L-tartrate was supplied as 10 mg or 3 mg controlled release tablets and 3 mg immediate release tablets, with matching placebo tablets. Study active compound was supplied in blisterpaks, with five tablets to be taken at time of each dosing. Subjects were instructed to take the tablets with one glass of water at bedtime.
as §3
In addition to this schedule, subjects at selected sites in the extension study were studied during two overnight admissions on the first night of dosing and again on day 28 of dosing. Growth hormone secretion and pharmacokinetic sampling was carried out.
as §4
In addition, subjects at selected study centers were admitted to an overnight unit on day 28 of dosing. Growth hormone secretion profile, pharmacokinetics, and vital sign determination were carried out.
as §5

Data set [3] can be described thus: Solubility and osmotic pressure of the active compound. The format is physicochemical.
Where [4] appears, read: two groups receiving IR formulation.

A value given as a limit tells only on which side of the number the result lay.

For the molecule `CN1N=C2CCN(C(=O)[C@@H](COCc3ccccc3)NC(=O)C(C)(C)N)C[C@@]2(Cc2ccccc2)C1=O.O=C(O)C(O)C(O)C(=O)O` [2-amino-N-[2-(3a-(R)-benzyl-2-methyl-3-oxo-2,3,3a,4,6,7-hexahydro-pyrazolo[4,3-c]pyridin-5-yl)-1-(R)-benzyloxymethyl-2-oxo-ethyl]-isobutyramide L-tartrate], the IGF-1 dose relation entry in data set [1] (0 mg, 1 mg tid, 3 mg tid, 3 mg am and 6 mg pm) was “dose related increase”. For the same molecule, in data set [1] (both groups administered 9 mg daily (3 mg tid; 3 mg am and 6 mg pm), immediate release), the “increase in IGF-1” value is listed as “approximately 35%”. Further, in data set [1] (first leg), the IGFBP3 entry is on record as “increased”. For the same molecule, the “changes in body composition” value in data set [1] (first leg, small changes) is “decreased adipose tissue and increased apparent whole body lean mass”. For the same molecule, the “attenuation of GH peaks” value in data set [2] (Q 3 day group compared with daily group) is reported as “less attenuation”. Besides, the “average GH peaks” value was less than 2 ng/mL in data set [2] (group receiving CR alone, after 4 weeks); “less than 4 ng/ml” in data set [2] (group receiving CR alone, at baseline (first night of dosing)); not below 15 ng/mL in data set [2] (groups receiving 6 mg IR (with 10 mg CR), at baseline); 4 to 6 ng/mL in data set [2] (groups receiving 6 mg IR (with 10 mg CR), by 4 weeks). For the same molecule, the “GH peak height, Q 3 day group greater than QD group” value in data set [2] (on average) was determined as 1.52 ng/mL. Further, the “average rise of IGF-I” value in data set [2] (remaining group, apparently 16 mg (10 CR, 6 IR) h.s. every third day) is recorded as “approximately 10%”. Further, the IGF-I result in data set [2] (the 2 groups dosed daily (16 mg CR h.s., 16 mg (10 CR, 6 IR) h.s.)) is reported as “increases”. Moreover, the adipose tissue result in data set [2] (setting [4]) is “corresponding reductions”. Moreover, in data set [2] (setting [4]), the “increases in lean tissue” value was 0.5-0.6%. For the same molecule, the osmotic pressure result in data set [3] is “about 4 atmospheres”. Also, the “pH dependence of solubility” value in data set [3] (this GHSEC is a base) was “generally higher at acidic pH”. This molecule also yielded a solubility in data set [3] (water) of more than 150 mg/mL.

As usually defined, the solubility is how much of the substance goes into solution per volume. A low value points to a poorly soluble substance.

The values are drawn from patent publication US20020094992A1, “Intermittent administration of a growth hormone secretagogue” (priority 2000, published 2002).
